{
  "source": "patent US20220409617A1",
  "about": "“Drug Formulations and Methods of Treatment for Metabolic Disorders” (The Regents of the University of California, priority 2019, published 2022)",
  "key": {"[1]": {"tested_on": "protein phosphatase 2A (PP2A)", "conditions": "cited from earlier work"}, "[2]": {"tested_on": "mouse embryonic fibroblasts (MEFs)", "type": "cell-based", "conditions": "3 h pre-treatment then palmitate 250 μM 3 h, 893 5 μM, myriocin 10 μM, fumonisin B1 30 μM, NAV-2729 12.5 μM, YM201636 800 nM, celastrol 500 nM", "protocol": "Mitochondrial morphology was assessed by examining citrate synthesis expression under a high resolution microscopy. Specifically, the aspect ratio, branch length and roundness of mitochondria was assessed (FIG. 1).\nLSL-KrasG12D mouse embryonic fibroblasts (MEFs) with and without Cre-mediated deletion of the STOP cassette were obtained from David Tuveson (Cold Spring Harbor Laboratory, Cold Spring Harbor N.Y., USA) in 2000. p53^flox/flox MEFs were derived in house (2015) from C57BL/6 mice using standard techniques and immortalized by transient expression of Cre recombinase and deletion of p53. MEFs were cultured and maintained in DMEM with 10% FBS and 1% penicillin-streptomycin. […] Stock solution of palmitic acid (ACROS Organics, cat # AC129702500) was prepared at 100 mM in ethanol. Palmitate (250 μM) was conjugated to 1% (w/v) fatty-acid free bovine serum albumin (Sigma, A8806) in DMEM at 37° C. for 20 min. For all immunofluorescence assays, 8,000 MEFs were seeded into 8-chamber slides (Cellvis, cat # C8-1.5H-N) 12-16 h before treatment. Cells were pre-treated with sphingolipid-like compound 893 (5 μM in water), myriocin (10 μM in methanol), fumonisin-B1 (30 μM in DMSO), or celastrol (500 nM in DMSO) for 3 h followed by a 3 h treatment with BSA-conjugated palmitate mixture or BSA alone."}, "AKT": {"tested_on": "AKT", "assay": "Insulin-stimulated AKT activation, western blot", "type": "cell-based, mouse", "conditions": "3T3-L1 adipocytes; 3 h pre-treatment, C2-ceramide 50 or 100 μM, 893 5 or 10 μM; insulin 100 nM 15 min", "procedure": "3T3-L1 cells were maintained in DMEM with 10% FBS and 1% penicillin-streptomycin until induced to differentiate. 3T3-L1 pre-adipocytes were differentiated as described in (M. P. Valley, et al., Anal. Biochem. 505: 43-50, 2016, the disclosure of which is incorporated herein by reference) with slight modifications. Briefly, pre-adipocytes were grown to confluence. After 2 d, cells were induced with maintenance media containing 500 μM IBMX (15879, Sigma-Aldrich, St. Louis, Mo.), 1 μM dexamethasone (D4902, Sigma-Aldrich), 5 μg/mL bovine insulin (10516, Sigma-Aldrich), and 5 μM troglitazone (50-115-0786, ApexBio). Media was changed every 2-3 d for 7 d. On day 7 post-induction, media was changed to maintenance media+5 μg/mL bovine insulin. On day 9 post-induction, media was changed to maintenance media. Mature adipocytes were used 12-14 d post-induction for all experiments. […]\nMature adipocytes were serum starved for 16 h then treated with vehicle, ceramide (50 or 100 μM), or sphingolipid-like compound 893 (5 or 10 μM) in serum-free media supplemented with 0.2% fatty-acid free BSA for 3 h after which 100 nM insulin was added for 15 min. […] Protein content was quantified in the supernatant using the Pierce™ BCA Protein Assay Kit (Thermo-Fisher Scientific, Waltham, Mass.). […]"}},
  "note": "Entries after “also recorded” stand apart in the source; their conditions may differ.",
  "data": [
    {"smiles": "CCCCCCCCc1ccc([C@H]2CCN[C@@H]2CO)cc1.Cl", "note": "[compound 893]", "values": [
      {"measurement": "Effect on PP2A", "setting": "[1]", "result": "activate protein phosphatase 2A (PP2A)"},
      {"measurement": "Protection from palmitate-induced mitochondrial fragmentation (aspect ratio, branch length, roundness)", "setting": "[2]", "result": "robust protection from both ceramide- and palmitate-induced mitochondrial fragmentation; also recorded: preserved a tubular, branched mitochondrial network in palmitate-treated cells"},
      {"measurement": "Insulin-stimulated AKT activation", "setting": "AKT", "result": "but not sphingolipid-like compound 893, interfered with insulin-stimulated AKT activation"}
    ]}
  ]
}
